# Assays:
# Format in all cases: in vivo, human
# CD151+CD14 = experiment: Flow cytometry, CD151+CD14 in patients undergoing coronary stenting; parameters: unit not given here
# Experimental: (§1) The study sought to compare the antiplatelet properties of prasugrel and clopidogrel in the frame of a Phase 2 randomized trial. Specifically, nine patients undergoing coronary stenting were randomized to one of three arms of prasugrel (40-60-60 mg loading, and 7.5-10-15 mg maintenance daily dose), or clopidogrel (300 mg/75 mg). Aspirin and GP IIb/IIIa inhibitors were allowed.
# CD31 (PECAM-1) = experiment: Flow cytometry, platelet surface expression of CD31 (PECAM-1) in patients undergoing coronary stenting
# Experimental: as §1
# Thrombospondin = experiment: Flow cytometry, platelet thrombospondin in patients undergoing coronary stenting; parameters: Thrombospondin, flow cytometry: unit not given here
# Experimental: as §1
# CD40 ligand = experiment: Flow cytometry, platelet CD40 ligand in patients undergoing coronary stenting; parameters: CD40 ligand, flow cytometry: unit not given here
# Experimental: as §1
# PAR-1/PAR-4 (SPAN12) = experiment: Flow cytometry, SPAN12 (PAR-1/PAR-4) in patients undergoing coronary stenting
# Experimental: as §1
# CD62p (P-selectin) = experiment: Flow cytometry, platelet surface expression of CD62p (P-selectin) in patients undergoing coronary stenting; parameters: CD62p (P-selectin), flow cytometry: unit not given here
# Experimental: as §1
# CD165 (GP37) = experiment: Flow cytometry, platelet CD165 (GP37) in patients undergoing coronary stenting; parameters: CD165 (GP37), flow cytometry: unit not given here
# Experimental: as §1
# CD42 (GP-Ib) = experiment: Flow cytometry, platelet surface expression of CD42 (GP-Ib) in patients undergoing coronary stenting; parameters: CD42 (GP-Ib), flow cytometry: unit not given here
# Experimental: as §1
# PAR-1/PAR-4 (WEDE15) = experiment: Flow cytometry, WEDE15 (PAR-1/PAR-4) in patients undergoing coronary stenting
# Experimental: as §1
# [1] = test system: platelets (collagen-induced aggregation); experiment: Collagen-induced platelet aggregation in stented patients; conditions: independent of the dosing regimen; vs patients treated with clopidogrel
# Experimental: (§2) The study sought to compare the antiplatelet properties of prasugrel and clopidogrel in the frame of a Phase 2 randomized trial. Specifically, nine patients undergoing coronary stenting were randomized to one of three arms of prasugrel (40-60-60 mg loading, and 7.5-10-15 mg maintenance daily dose), or clopidogrel (300 mg/75 mg). Aspirin and GP IIb/IIIa inhibitors were allowed. […] Applicants believe the above results are significant and establish a correlation between use of CS-747 (prasugrel) and inhibition of the activity or activation of PAR-1 and/or PAR-4 receptors. […] The correlations or trends shown in table 1 are independent of aspirin or Gb-11b inhibitor use by some patients at baseline. Confounding effects by aspirin or GB-IIb/IIIA use at baseline should be absent at 30 days.
# platelets = experiment: Ultegra Analyzer platelet function in stented patients; conditions: independent of the dosing regimen; vs patients treated with clopidogrel
# Experimental: as §2
# [2] = test system: platelets (ADP-induced aggregation); experiment: ADP-induced platelet aggregation in stented patients; conditions: independent of the dosing regimen; vs patients treated with clopidogrel
# Experimental: as §2
# [3] = test system: GPIIb/IIIa activity with PAC-1 antibody; experiment: GPIIb/IIIa activity with PAC-1 antibody in stented patients; conditions: independent of the dosing regimen; vs patients treated with clopidogrel
# Experimental: as §2
# GPIIb/IIIa antigen = experiment: Surface expression of GPIIb/IIIa antigen in stented patients; conditions: independent of the dosing regimen; vs patients treated with clopidogrel
# Experimental: as §2
# [4] = 30 days after stent implantation
# [5] = Baseline, patients undergoing coronary stenting
# [6] = independent of the dosing regimen, vs patients treated with clopidogrel
structure (smiles),measurement,setting,value
"COC(=O)[C@H](c1ccccc1Cl)N1CCc2sccc2C1 [clopidogrel, reference compound]","CD151+CD14, flow cytometry",CD151+CD14; 4 hr after stent implantation,62.6 ± 14.4
same,"CD151+CD14, flow cytometry",CD151+CD14; 24 hr after stent implantation,69.5 ± 22.4
same,"CD151+CD14, flow cytometry",CD151+CD14; [4],66.0 ± 9.5
same,"CD151+CD14, flow cytometry",CD151+CD14; [5],67.1 ± 14.5
same,"CD31 (PECAM-1), flow cytometry",CD31 (PECAM-1); 4 hr after stent implantation,41.6 ± 17.3
same,"CD31 (PECAM-1), flow cytometry",CD31 (PECAM-1); 24 hr after stent implantation,38.0 ± 18.9
same,"CD31 (PECAM-1), flow cytometry",CD31 (PECAM-1); [4],58.6 ± 8.4
same,"CD31 (PECAM-1), flow cytometry",CD31 (PECAM-1); [5],62.9 ± 12.2
same,"Thrombospondin, flow cytometry",Thrombospondin; 4 hr after stent implantation,6.7 ± 2.0
same,"Thrombospondin, flow cytometry",Thrombospondin; 24 hr after stent implantation,7.8 ± 2.8
same,"Thrombospondin, flow cytometry",Thrombospondin; [4],8.1 ± 1.3
same,"Thrombospondin, flow cytometry",Thrombospondin; [5],7.1 ± 2.0
same,"CD40 ligand, flow cytometry",CD40 ligand; 4 hr after stent implantation,4.1 ± 1.3
same,"CD40 ligand, flow cytometry",CD40 ligand; 24 hr after stent implantation,4.2 ± 1.3
same,"CD40 ligand, flow cytometry",CD40 ligand; [4],6.5 ± 1.6
same,"CD40 ligand, flow cytometry",CD40 ligand; [5],5.5 ± 1.3
same,"SPAN12 (PAR-1/PAR-4), flow cytometry",PAR-1/PAR-4 (SPAN12); 4 hr after stent implantation,16.2 ± 5.0
same,"SPAN12 (PAR-1/PAR-4), flow cytometry",PAR-1/PAR-4 (SPAN12); 24 hr after stent implantation,17.1 ± 5.3
same,"SPAN12 (PAR-1/PAR-4), flow cytometry",PAR-1/PAR-4 (SPAN12); [4],6.2 ± 0.9
same,"SPAN12 (PAR-1/PAR-4), flow cytometry",PAR-1/PAR-4 (SPAN12); [5],18.0 ± 4.8
same,"CD62p (P-selectin), flow cytometry",CD62p (P-selectin); 4 hr after stent implantation,10.0 ± 3.5
same,"CD62p (P-selectin), flow cytometry",CD62p (P-selectin); 24 hr after stent implantation,9.8 ± 3.6
same,"CD62p (P-selectin), flow cytometry",CD62p (P-selectin); [4],9.6 ± 1.4
same,"CD62p (P-selectin), flow cytometry",CD62p (P-selectin); [5],10.4 ± 3.4
same,"CD165 (GP37), flow cytometry",CD165 (GP37); 4 hr after stent implantation,17.8 ± 5.8
same,"CD165 (GP37), flow cytometry",CD165 (GP37); 24 hr after stent implantation,18.3 ± 4.2
same,"CD165 (GP37), flow cytometry",CD165 (GP37); [4],19.7 ± 3.0
same,"CD165 (GP37), flow cytometry",CD165 (GP37); [5],23.9 ± 5.2
same,"CD42 (GP-Ib), flow cytometry",CD42 (GP-Ib); 4 hr after stent implantation,134.2 ± 37.3
same,"CD42 (GP-Ib), flow cytometry",CD42 (GP-Ib); 24 hr after stent implantation,129.8 ± 37.6
same,"CD42 (GP-Ib), flow cytometry",CD42 (GP-Ib); [4],168.0 ± 48.0
same,"CD42 (GP-Ib), flow cytometry",CD42 (GP-Ib); [5],135.2 ± 35.1
same,"WEDE15 (PAR-1/PAR-4), flow cytometry",PAR-1/PAR-4 (WEDE15); 4 hr after stent implantation,20.9 ± 9.3
same,"WEDE15 (PAR-1/PAR-4), flow cytometry",PAR-1/PAR-4 (WEDE15); 24 hr after stent implantation,25.7 ± 9.6
same,"WEDE15 (PAR-1/PAR-4), flow cytometry",PAR-1/PAR-4 (WEDE15); [4],16.5 ± 3.2
same,"WEDE15 (PAR-1/PAR-4), flow cytometry",PAR-1/PAR-4 (WEDE15); [5],30.2 ± 10.9
"CC(=O)Oc1cc2c(s1)CCN(C(C(=O)C1CC1)c1ccccc1F)C2 (stereo not drawn) [prasugrel, 2-acetoxy-5-(α-cyclopropylcarbonyl-2-fluorobenzyl)-4,5,6,7-tetrahydrothieno[3,2-c]pyridine]","CD151+CD14, flow cytometry",CD151+CD14; 4 hr after stent implantation,60.1 ± 18.9
same,"CD151+CD14, flow cytometry",CD151+CD14; 24 hr after stent implantation,62.7 ± 29.2
same,"CD151+CD14, flow cytometry",CD151+CD14; [4],61.8 ± 23.0
same,"CD151+CD14, flow cytometry",CD151+CD14; [5],73.0 ± 11.1
same,"CD31 (PECAM-1), flow cytometry",CD31 (PECAM-1); 4 hr after stent implantation,52.5 ± 29.3
same,"CD31 (PECAM-1), flow cytometry",CD31 (PECAM-1); 24 hr after stent implantation,52.8 ± 28.7
same,"CD31 (PECAM-1), flow cytometry",CD31 (PECAM-1); [4],24.6 ± 24.4
same,"CD31 (PECAM-1), flow cytometry",CD31 (PECAM-1); [5],69.9 ± 19.3
same,"Platelet inhibition by surface expression of PECAM-1, compared with clopidogrel",CD31 (PECAM-1); [6],more potent platelet inhibition
same,"Platelet inhibition by collagen-induced aggregation, compared with clopidogrel",[1],more potent platelet inhibition
same,"Thrombospondin, flow cytometry",Thrombospondin; 4 hr after stent implantation,6.4 ± 1.1
same,"Thrombospondin, flow cytometry",Thrombospondin; 24 hr after stent implantation,6.7 ± 1.7
same,"Thrombospondin, flow cytometry",Thrombospondin; [4],4.0 ± 0.7
same,"Thrombospondin, flow cytometry",Thrombospondin; [5],7.3 ± 2.2
same,"Platelet inhibition by surface expression of thrombospondin receptor, compared with clopidogrel",Thrombospondin; [6],more potent platelet inhibition
same,"CD40 ligand, flow cytometry",CD40 ligand; 4 hr after stent implantation,4.8 ± 1.4
same,"CD40 ligand, flow cytometry",CD40 ligand; 24 hr after stent implantation,4.6 ± 1.1
same,"CD40 ligand, flow cytometry",CD40 ligand; [4],3.7 ± 1.3
same,"CD40 ligand, flow cytometry",CD40 ligand; [5],6.9 ± 0.8
same,"Platelet inhibition by surface expression of CD40-ligand, compared with clopidogrel",CD40 ligand; [6],more potent platelet inhibition
same,"Platelet inhibition by Ultegra Analyzer, compared with clopidogrel",platelets,more potent platelet inhibition
same,"Platelet inhibition by ADP-induced aggregation, compared with clopidogrel",[2],more potent platelet inhibition
same,"SPAN12 (PAR-1/PAR-4), flow cytometry",PAR-1/PAR-4 (SPAN12); 4 hr after stent implantation,13.3 ± 2.5
same,"SPAN12 (PAR-1/PAR-4), flow cytometry",PAR-1/PAR-4 (SPAN12); 24 hr after stent implantation,12.0 ± 2.7
same,"SPAN12 (PAR-1/PAR-4), flow cytometry",PAR-1/PAR-4 (SPAN12); [4],6.6 ± 1.7
same,"SPAN12 (PAR-1/PAR-4), flow cytometry",PAR-1/PAR-4 (SPAN12); [5],19.5 ± 5.4
same,"CD62p (P-selectin), flow cytometry",CD62p (P-selectin); 4 hr after stent implantation,8.9 ± 3.3
same,"CD62p (P-selectin), flow cytometry",CD62p (P-selectin); 24 hr after stent implantation,7.9 ± 1.4
same,"CD62p (P-selectin), flow cytometry",CD62p (P-selectin); [4],5.2 ± 2.3
same,"CD62p (P-selectin), flow cytometry",CD62p (P-selectin); [5],10.8 ± 4.1
same,"Platelet inhibition by surface expression of P-selectin, compared with clopidogrel",CD62p (P-selectin); [6],more potent platelet inhibition
same,"CD165 (GP37), flow cytometry",CD165 (GP37); 4 hr after stent implantation,17.8 ± 5.6
same,"CD165 (GP37), flow cytometry",CD165 (GP37); 24 hr after stent implantation,15.8 ± 5.7
same,"CD165 (GP37), flow cytometry",CD165 (GP37); [4],12.2 ± 2.8
same,"CD165 (GP37), flow cytometry",CD165 (GP37); [5],24.7 ± 2.8
same,"Platelet inhibition by surface expression of GP37, compared with clopidogrel",CD165 (GP37); [6],more potent platelet inhibition
same,"CD42 (GP-Ib), flow cytometry",CD42 (GP-Ib); 4 hr after stent implantation,138.7 ± 38.3
same,"CD42 (GP-Ib), flow cytometry",CD42 (GP-Ib); 24 hr after stent implantation,154.0 ± 39.6
same,"CD42 (GP-Ib), flow cytometry",CD42 (GP-Ib); [4],110.0 ± 47.7
same,"CD42 (GP-Ib), flow cytometry",CD42 (GP-Ib); [5],145.9 ± 35.5
same,"Platelet inhibition by surface expression of GPIb, compared with clopidogrel",CD42 (GP-Ib); [6],more potent platelet inhibition
same,"Platelet inhibition by GPIIb/IIIa activity with PAC-1 antibody, compared with clopidogrel",[3],more potent platelet inhibition
same,"Platelet inhibition by surface expression of GPIIb/IIIa antigen, compared with clopidogrel",GPIIb/IIIa antigen,more potent platelet inhibition
same,"WEDE15 (PAR-1/PAR-4), flow cytometry",PAR-1/PAR-4 (WEDE15); 4 hr after stent implantation,17.0 ± 6.2
same,"WEDE15 (PAR-1/PAR-4), flow cytometry",PAR-1/PAR-4 (WEDE15); 24 hr after stent implantation,19.6 ± 8.4
same,"WEDE15 (PAR-1/PAR-4), flow cytometry",PAR-1/PAR-4 (WEDE15); [4],15.3 ± 5.9
same,"WEDE15 (PAR-1/PAR-4), flow cytometry",PAR-1/PAR-4 (WEDE15); [5],37.0 ± 9.8

# — patent US20080214599A1, “Use of Par-1/Par-4 Inhibitors for Treating or Preventing Vascular Diseases” (priority 2005, published 2008)
